Results published in the NIST ThermoML archive (doi:10.1021/je060107n).
± gives the expanded uncertainty stated by the source.

Assay: mn = molality of the nth substance listed, in mol/kg
Details: 101 kPa, Liquid; for speed of sound: Linear variable-path acoustic interferometer; for mass density: Pycnometric method; for viscosity: Capillary tube (Ostwald / Ubbelohde) method

O=[N+]([O-])[O-].O=[N+]([O-])[O-].[Mg+2] [magnesium nitrate] + O
Details	mass density [kg/m3]	speed of sound [m/s]	viscosity [mPa·s]
293.15 K, m1 = 2.131	–	1656.3 ± 2	–
293.15 K, m1 = 2.493	–	1682.1 ± 2	–
293.15 K, m1 = 2.793	–	1705.3 ± 2	–
293.15 K, m1 = 3.118	–	1728.1 ± 2	–
293.15 K, m1 = 3.17	–	1736.5 ± 2	–
293.15 K, m1 = 3.501	–	1755.4 ± 2	–
293.15 K, m1 = 3.757	–	1771.3 ± 2	–
293.15 K, m1 = 4.051	–	1787.5 ± 2	–
293.15 K, m1 = 4.285	–	1802.4 ± 2.1	–
293.15 K, m1 = 4.403	–	1809.3 ± 2.1	–
293.15 K, m1 = 4.883	–	1838.8 ± 2.1	–
295.75 K, m1 = 0.3405	1032.9 ± 0.6	–	–
296 K, m1 = 5.134	1404.4 ± 1	–	–
297.5 K, m1 = 3.501	1299.9 ± 1.1	–	–
297.65 K, m1 = 0.5931	1057.4 ± 0.6	–	–
297.85 K, m1 = 4.285	1350.5 ± 0.8	–	–
297.9 K, m1 = 3.17	1281.3 ± 1.2	–	–
298.1 K, m1 = 2.493	1225.2 ± 0.8	–	–
298.15 K, m1 = 0.0145	–	1498.3 ± 1.9	0.9075 ± 0.012
298.15 K, m1 = 0.0528	–	1500.5 ± 1.9	0.9227 ± 0.012
298.15 K, m1 = 0.2491	–	1514.9 ± 1.9	0.9713 ± 0.013
298.15 K, m1 = 0.3405	–	1519 ± 1.9	–
298.15 K, m1 = 0.5931	–	–	1.079 ± 0.014
298.15 K, m1 = 0.6173	–	1540.9 ± 1.9	–
298.15 K, m1 = 0.896	–	1563 ± 1.9	–
298.15 K, m1 = 0.9898	–	1570.8 ± 1.9	1.232 ± 0.016
298.15 K, m1 = 1.262	–	1590 ± 1.9	1.366 ± 0.018
298.15 K, m1 = 1.525	–	1611.1 ± 1.9	–
298.15 K, m1 = 1.827	–	1637.3 ± 1.9	1.662 ± 0.022
298.15 K, m1 = 2.131	–	1660.5 ± 2	1.842 ± 0.024
298.15 K, m1 = 2.493	–	1685.3 ± 2	–
298.15 K, m1 = 2.584	–	–	2.206 ± 0.029
298.15 K, m1 = 2.793	–	1706.5 ± 2	–
298.15 K, m1 = 3.096	–	–	2.665 ± 0.035
298.15 K, m1 = 3.118	–	1728.8 ± 2	–
298.15 K, m1 = 3.17	–	1736.6 ± 2	–
298.15 K, m1 = 3.329	–	–	2.921 ± 0.039
298.15 K, m1 = 3.501	–	1754.6 ± 2	–
298.15 K, m1 = 3.704	–	–	3.367 ± 0.045
298.15 K, m1 = 3.757	–	1774.2 ± 2	–
298.15 K, m1 = 4.039	–	–	3.889 ± 0.052
298.15 K, m1 = 4.051	–	1786.2 ± 2	–
298.15 K, m1 = 4.285	–	1800.3 ± 2.1	–
298.15 K, m1 = 4.403	–	1806.6 ± 2.1	–
298.15 K, m1 = 4.728	–	–	5.349 ± 0.071
298.15 K, m1 = 4.883	–	1831.8 ± 2.1	–
298.15 K, m1 = 4.907	–	–	5.933 ± 0.079
298.15 K, m1 = 5.134	–	1855.2 ± 2.1	–
298.15 K, m1 = 5.282	–	–	7.034 ± 0.093
298.2 K, m1 = 5.134	1402.9 ± 1	–	–
298.5 K, m1 = 4.051	1333.6 ± 0.8	–	–
299.15 K, m1 = 0.0145	998.05 ± 0.63	–	–
299.35 K, m1 = 0.0528	1002.2 ± 0.7	–	–
299.6 K, m1 = 0.3405	1031.8 ± 0.6	–	–
299.75 K, m1 = 2.131	1196.1 ± 0.8	–	–
299.8 K, m1 = 3.501	1298.5 ± 0.9	–	–
299.95 K, m1 = 4.728	1377.8 ± 0.8	–	–
300.1 K, m1 = 3.17	1280 ± 0.9	–	–
300.15 K, m1 = 4.883	1384.4 ± 0.9	–	–
300.3 K, m1 = 4.285	1349 ± 0.9	–	–
300.35 K, m1 = 2.493	1223.9 ± 0.8	–	–
300.5 K, m1 = 0.9898	1095.4 ± 0.8	–	–
300.5 K, m1 = 5.134	1401.4 ± 1	–	–
300.75 K, m1 = 2.584	1232 ± 0.8	–	–
300.75 K, m1 = 4.039	1332.1 ± 0.9	–	–
300.85 K, m1 = 4.051	1332.2 ± 0.9	–	–
300.9 K, m1 = 0.896	1085.9 ± 0.7	–	–
300.95 K, m1 = 0.5931	1056.2 ± 0.7	–	–
300.95 K, m1 = 1.262	1119.4 ± 0.7	–	–
300.95 K, m1 = 2.793	1247.4 ± 0.8	–	–
301 K, m1 = 4.97	1390.1 ± 1	–	–
301.05 K, m1 = 3.704	1311.3 ± 0.9	–	–
301.1 K, m1 = 1.525	1142.4 ± 0.7	–	–
301.25 K, m1 = 4.403	1355.4 ± 0.8	–	–
301.6 K, m1 = 0.2491	1022.3 ± 0.7	–	–
302.1 K, m1 = 3.096	1269.1 ± 0.9	–	–
302.1 K, m1 = 3.501	1297.2 ± 0.9	–	–
302.25 K, m1 = 2.131	1194.8 ± 0.8	–	–
302.25 K, m1 = 3.17	1278.7 ± 1.5	–	–
302.3 K, m1 = 4.728	1376.3 ± 1	–	–
302.4 K, m1 = 4.285	1347.6 ± 0.9	–	–
302.55 K, m1 = 0.3405	1030.8 ± 0.9	–	–
302.55 K, m1 = 2.493	1222.7 ± 0.8	–	–
302.6 K, m1 = 1.827	1169.5 ± 0.8	–	–
302.6 K, m1 = 4.883	1382.9 ± 0.9	–	–
302.95 K, m1 = 4.039	1330.8 ± 0.9	–	–
302.95 K, m1 = 5.134	1399.9 ± 1	–	–
303.05 K, m1 = 0.0145	996.95 ± 0.64	–	–
303.1 K, m1 = 1.694	1156.4 ± 0.7	–	–
303.1 K, m1 = 2.584	1230.7 ± 0.8	–	–
303.1 K, m1 = 2.793	1246.1 ± 0.9	–	–
303.15 K, m1 = 0.0145	–	1509.5 ± 1.9	0.8115 ± 0.011
303.15 K, m1 = 0.0528	–	1511.9 ± 1.9	0.825 ± 0.011
303.15 K, m1 = 0.2491	–	1526.5 ± 1.9	0.8716 ± 0.012
303.15 K, m1 = 0.3405	–	1529.9 ± 1.9	–
303.15 K, m1 = 0.5931	–	–	0.9679 ± 0.013
303.15 K, m1 = 0.6173	–	1550.7 ± 1.9	–
303.15 K, m1 = 0.896	–	1571.2 ± 1.9	–
303.15 K, m1 = 0.9898	–	1578.7 ± 1.9	1.112 ± 0.015
303.15 K, m1 = 1.262	–	1596.4 ± 1.9	1.228 ± 0.016
303.15 K, m1 = 1.525	–	1617 ± 1.9	–
303.15 K, m1 = 1.827	–	1641 ± 1.9	1.493 ± 0.02
303.15 K, m1 = 2.131	–	1663.8 ± 2	1.654 ± 0.022
303.15 K, m1 = 2.493	–	1686.8 ± 2	–
303.15 K, m1 = 2.584	–	–	1.969 ± 0.026
303.15 K, m1 = 2.793	–	1708.1 ± 2	–
303.15 K, m1 = 3.096	–	–	2.38 ± 0.031
303.15 K, m1 = 3.118	–	1729.1 ± 2	–
303.15 K, m1 = 3.17	–	1736.9 ± 2	–
303.15 K, m1 = 3.329	–	–	2.611 ± 0.034
303.15 K, m1 = 3.501	–	1753.9 ± 2	–
303.15 K, m1 = 3.704	–	–	2.998 ± 0.039
303.15 K, m1 = 3.757	–	1772.5 ± 2	–
303.15 K, m1 = 4.039	–	–	3.462 ± 0.046
303.15 K, m1 = 4.051	–	1783.6 ± 2	–
303.15 K, m1 = 4.285	–	1797.4 ± 2.1	–
303.15 K, m1 = 4.403	–	1804.5 ± 2.1	–
303.15 K, m1 = 4.728	–	–	4.73 ± 0.062
303.15 K, m1 = 4.883	–	1830.6 ± 2.1	–
303.15 K, m1 = 4.907	–	–	5.225 ± 0.069
303.15 K, m1 = 4.97	1388.7 ± 0.9	–	–
303.15 K, m1 = 5.134	–	1842.9 ± 2.1	–
303.15 K, m1 = 5.282	–	–	6.141 ± 0.081
303.25 K, m1 = 0.0528	1001.1 ± 0.7	–	–
303.3 K, m1 = 3.704	1309.8 ± 0.9	–	–
303.5 K, m1 = 1.525	1141.2 ± 0.8	–	–
303.5 K, m1 = 4.403	1353.9 ± 0.9	–	–
303.55 K, m1 = 1.262	1118.2 ± 0.7	–	–
303.85 K, m1 = 0.5931	1055.1 ± 0.8	–	–
303.9 K, m1 = 0.896	1084.7 ± 0.7	–	–
304.15 K, m1 = 0.6173	1057.7 ± 0.7	–	–
304.25 K, m1 = 3.096	1267.7 ± 0.9	–	–
304.35 K, m1 = 3.501	1295.8 ± 0.9	–	–
304.35 K, m1 = 3.757	1312.3 ± 0.9	–	–
304.55 K, m1 = 2.131	1193.6 ± 0.8	–	–
304.55 K, m1 = 3.118	1268.5 ± 0.8	–	–
304.55 K, m1 = 4.285	1346.2 ± 0.9	–	–
304.55 K, m1 = 4.728	1374.9 ± 1	–	–
304.8 K, m1 = 4.883	1381.4 ± 1	–	–
305 K, m1 = 0.2491	1021.1 ± 0.7	–	–
305 K, m1 = 1.827	1168.3 ± 0.8	–	–
305.05 K, m1 = 2.493	1221.3 ± 0.8	–	–
305.2 K, m1 = 4.051	1329.4 ± 0.9	–	–
305.25 K, m1 = 4.039	1329.3 ± 0.9	–	–
305.3 K, m1 = 1.694	1155.3 ± 0.8	–	–
305.35 K, m1 = 2.584	1229.4 ± 0.8	–	–
305.5 K, m1 = 2.793	1244.7 ± 0.9	–	–
305.55 K, m1 = 3.704	1308.4 ± 0.9	–	–
305.8 K, m1 = 0.9898	1093 ± 0.8	–	–
305.85 K, m1 = 0.3405	1029.6 ± 0.7	–	–
305.95 K, m1 = 1.525	1139.9 ± 0.8	–	–
